Read-outs that look alike come from different tables or passages of the source.
Experiments:
[1] = tested on: parental HEK cells; assay: HEK parental Agonist Counterscreen Assay (non-transfected cells); type: cell-based; conditions: for Lipophilic Efficiency (logD) / Lipophilic Efficiency (logP) / Averaged Max % Response (±St. Dev.): HEK Agonist Activity section; for EC50: HEK Agonist Activity section of Table 4 (parental HEK counterscreen); for Averaged Max % Response (±St. Dev.): activity relative to known control
Source text: The high control for the agonist counterscreen was Forskolin not acetylcholine.

[2] = molecular target: T1, GPR139 (Homo sapiens, UniProt Q6DWJ6); assay: GPR139 Agonist titration / agonist counterscreen assay (calcium detection, HEK-GPR139 cells); type: cell-based; set-up: expressed in transfected cells; host or cells: HEK Aequorin cells, Maxcyte transient transfection; conditions: GPR139 Agonist Activity; for Averaged Max % Response (±St. Dev.): activity relative to known control; for EC50: read-out: EC50
T1 sequence (Q6DWJ6 1-353): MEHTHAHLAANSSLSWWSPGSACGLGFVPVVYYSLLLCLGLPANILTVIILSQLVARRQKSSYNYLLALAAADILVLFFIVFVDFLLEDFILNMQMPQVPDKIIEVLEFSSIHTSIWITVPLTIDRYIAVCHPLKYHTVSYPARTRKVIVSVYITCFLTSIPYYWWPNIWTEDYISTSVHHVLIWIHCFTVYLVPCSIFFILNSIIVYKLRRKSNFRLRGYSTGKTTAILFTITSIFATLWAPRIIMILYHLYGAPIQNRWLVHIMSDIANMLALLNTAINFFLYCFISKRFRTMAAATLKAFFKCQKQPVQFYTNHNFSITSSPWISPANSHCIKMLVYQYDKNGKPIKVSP
Procedure: GPR activity was assessed using a calcium detection assay. […] Negative control samples were treated with DMSO. […] Intracellular calcium was measured using Calcium 5.

[3] = values printed in E-notation without unit

| SMILES | Lipophilic Efficiency (logD) [1] | Lipophilic Efficiency (logP) [1] | EC50 [1] | Averaged Max % Response (±St. Dev.) [1] | Averaged Max % Response (±St. Dev.) [2] | Lipophilic Efficiency (logD) ([2]; based on logD) | Lipophilic Efficiency (logP) ([2]; based on logP) | Hill Slope ([2]; fitted dose-response curve) | Efficiency Ligand ([2]; ligand efficiency) | EC50 [2, 3] | Efficiency Ligand [2] | Hill Slope [2] | Lipophilic Efficiency (logD) [2] | Lipophilic Efficiency (logP) [2] | EC50 ([2]; HEK-GPR139 cells) | EC50 ([1]; Homo sapiens, HEK293) |
| --- | --- | --- | --- | --- | --- | --- | --- | --- | --- | --- | --- | --- | --- | --- | --- | --- |
| CSc1cccc(NC(=O)C2C3C=CC4(O3)C2C(=O)N(C(C)c2ccccc2)C4C(=O)NC2CCCC(C)C2C)c1 (stereo not drawn) [SR-01000545824] | −0.052 | −0.052 | > 13600 nM | −0.19 ± 3.69% | 103.05 ± 12.22% | 1.92 | 1.92 | 0.41 | 0.23 | 145 nM | – | – | – | – | – | – |
| CSc1cccc(NC(=O)C2C3C=CC4(O3)C2C(=O)N(C(C)c2ccccc2)C4C(=O)NC2CCCCC2)c1 (stereo not drawn) [SR-01000546462] | 0.56 | 0.56 | > 15100 nM | 0.58 ± 3.78% | 107.13 ± 9.94% | 2.98 | 2.98 | 0.51 | 0.26 | 56.5 nM | – | – | – | – | – | – |
| Cc1ccc(CN2CC34C=CC(O3)C(C(=O)NCCC3=CCCCC3)C4C2=O)cc1 (stereo not drawn) [SR-01000550322] | 1.99 | 1.99 | > 13400 nM | −6.25 ± 1.61% | 86.57 ± 2.15% | – | – | – | – | – | 0.27 | 0.73 | 2.87 | 2.87 | 1800 nM | – |
| CCc1cc(C2=C/C(=C/c3c(OC)ccc4ccccc34)C(=O)O2)cc(OC)c1OC [SR-01000551463] | 0.71 | 0.71 | – | 18.60 ± 9.91% | 110.88 ± 6.83% | 3.11 | 3.11 | 0.64 | 0.33 | 49.6 nM | – | – | – | – | – | > 12200 nM |
| C=C1N=C(NC2CCCCCC2)c2ccccc2N1 [SR-01000565308] | 1.03 | 0.98 | – | 25.00 ± 13.25% | 90.10 ± 8.93% | – | – | – | – | – | 0.45 | 1.89 | 2.40 | 2.36 | – | > 17500 nM |
| Cc1cccc(-n2cnc3cc(C(=O)NCc4ccc5c(c4)OCO5)ccc32)c1 [SR-01000579592] | 0.80 | 0.80 | – | −14.67 ± 10.75% | 96.78 ± 10.47% | – | – | – | – | – | 0.28 | – | 1.75 | 1.75 | > 1500 nM | > 13300 nM |
| CC12C=CC3(CN(Cc4ccccc4)C(=O)C3C1C(=O)NCc1ccco1)O2 (stereo not drawn) [SR-01000582958] | 3.51 | 3.51 | > 13400 nM | 10.03 ± 5.09% | 101.07 ± 20.22% | 5.28 | 5.28 | 0.87 | 0.33 | 228 nM | – | – | – | – | – | – |
| CC12C=CC3(CN(Cc4ccccc4)C(=O)C3C1C(=O)NCC1COc3ccccc3O1)O2 (stereo not drawn) [SR-01000582967] | 2.93 | 2.93 | > 13100 nM | −6.63 ± 2.99% | 117.27 ± 2.34% | – | – | – | – | – | 0.27 | 0.38 | 4.47 | 4.47 | 375 nM | – |

Source: patent US20250099420A1, “SMALL MOLECULE MODULATORS OF GPR139 COMPLEX” (University of Florida Research Foundation, Incorporated, priority 2022, published 2025)
